l = locked nucleic acid (LNA); d = 2'-deoxy (DNA)
Columns and labels:
PTEC-TERT1 cells [1] = experiment: EGF assay, supernatant of PTEC-TERT1 cells; details: for Toxicity grade: from EGF, assay window saline vs toxic reference compound 4-1
Method: Prior to treatment with oligonucleotides the PTEC-TERT1 were seeded into collagen I-coated 96-well plates (Corning, 356407) at a density of 40 000 and 20 000 cells/well respectively in PTEC medium and grown until confluence.
(§4) Oligonucleotides were dissolved in PBS and added to the cell culture at the given concentration, such as 10, 30 or 100 μM. The total volume of each well was 100 μl. PBS served as vehicle control.
(§5) When extra cellular markers, like EGF and KIM-1, were analyzed following the oligonucleotide treatment the medium was collected and stored at −20° C. until further analysis. […] The collected medium was stored at −20° C.
For analysis of human EGF, cell supernatants were thawed on ice, diluted 1:2 and 1:10 in sample dilution buffer (BioRad catalog # M60-009RDPD) and analyzed by Luminex®-based ELISA using human EGF beads (Bio-Plex Pro™ Human Cancer Biomarker Panel 2 EGF Set#171BC603M), or followed by analysis using the Bio-Plex® 200 Systems (BioRad) according to the manufacturer's instructions. Data are reported as mean concentrations and standard deviations of triplicate wells.

A549 cells [2] = experiment: EGF assay, A549 cells transfected with oligonucleotide; assay type: cell-based, human; details: A549, 48 hours after transfection;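 also: values as percent of saline control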
Method: (§1) A549 cells (ATCC CCL-185) were cultivated according to the manufacturer's instructions in A549 medium [F-12K Nut Mix (Gibco, 21127-022), 1% penicillin/streptomycin (Gibco: 15140-122), 10% FBS (Gibco 16000-044)].
(§2) Prior to treatment with oligonucleotides the A549 cells were seeded in 96 well plates at 3′000 cells per well in A549 regular medium and grown until 60% confluence. […]
(§3) A549 were cultivated as described in the “Materials and methods” section. At after at 50-60% confluence the oligonucleotides were transfected into the cells using 0.5 μl Lipofectamin (Invitrogen, 11668-019) in 25 μl OptiMEM® (GIBCO 31985062) and 1 ng or 10 ng oligonucleotide in the same volume OptiMEM. The cells were incubated over night at 37° C. The medium was changed using A459 regular medium+10 ng/ml EGF. 48 hours after transfection the medium was collected for EGF measurements and the cells were harvested for ATP measurements.

[3] = tested on: Human primary proximal tubule epithelial cells (PTEC); experiment: EGF assay, supernatant of primary PTEC cells
Method: Prior to treatment with oligonucleotides the primary PTEC cells were seeded into collagen I-coated 96-well plates (Corning, 356407) at a density of 40 000 and 20 000 cells/well respectively in PTEC medium and grown until confluence.
as §4, §5
For analysis of human EGF, cell supernatants were thawed on ice, diluted 1:2 and 1:10 in sample dilution buffer (BioRad catalog # M60-009RDPD) and analyzed by Luminex®-based ELISA using human EGF beads (Bio-Plex Pro™ Human Cancer Biomarker Panel 2 EGF Set#171BC603M), or followed by analysis using the Bio-Plex® 200 Systems (BioRad) according to the manufacturer's instructions. Data are reported as mean concentrations and standard deviations of triplicate wells. An increase of EGF levels above 200% was considered as predictive for nephrotoxicity.

[4] = tested on: Primary human hepatocytes; experiment: EGF assay, culture media of primary human hepatocytes; assay type: cell-based; details: 10 ng/ml EGF in medium;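 also: values as percent of saline vehicle control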
Method: Cryopreserved human hepatocytes were suspended in William's Medium E (WME) without phenol red (Sigma W-1878) supplemented with 10% fetal calf serum, penicillin (100 U/ml), streptomycin (0.1 mg/ml) at a density of approx. 1×10^6 cells/ml and seeded into collagen-coated 96-well plates (Becton Dickinson AG, Allschwil, Switzerland) at a density of 0.4×10^5 cells/well. Cells were pre-cultured for 3 to 4 h allowing for attachment to cell culture plates before start of treatment with oligonucleotides.
Before oligonucleotide treatment the seeding medium was replaced by 90 μl of serum free WME.
The total volume of each well was 100 μl. PBS served as vehicle control.
Human primary hepatocytes were cultivated as described in the “Materials and methods” section with addition of 10 ng/ml of EGF to the medium. At confluence the cells were treated with oligonucleotide as described in the “Materials and methods” section, in concentrations of 10 or 100 μM.
The medium was obtained at day 3, and the EGF level was measured according to the assay described in the “Materials and methods” section.

PTEC-TERT1 cells [5] = experiment: Morphological changes of PTEC-TERT1 cells upon oligonucleotide treatment; assay type: cell-based, human; details: 100 μM oligonucleotide, 7 days, bright field microscopy, vs saline
Method: PTEC-TERT1 cells were cultures as described in the “Materials and methods” section. To mimic the physiological exposure of renal tubules to circulating naked oligonucleotide (i.e. without assistance of delivery technology, herein termed gymnosis or gymnotic delivery), confluent monolayers of PTEC-TERT1 cells were exposed to an aqueous solution of 100 μM oligonucleotide. The medium was replaced every three days including 100 μM fresh oligonucleotide in the fresh medium.
After 7 days of treatment the morphological alterations in the treated cell cultures were investigated under bright field microscopy.

A549 cells [6] = experiment: Intracellular ATP assay, A549 cells transfected with oligonucleotide; assay type: cell-based, human; details: A549, 48 hours after transfection;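 also: ATP as percent of saline control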
Method: as §1, §2
Each sample was tested in triplicate.
as §3

[7] = tested on: Wistar Han Crl:WI(Han) male rats; experiment: In vivo nephrotoxicity in rats; details: 40 mg/kg on days 1 and 8, assessed day 15, 40 mg/kg
Method: Purpose bred Wistar Han Crl:WI(Han) male rats obtained from Charles River Laboratories at 7 to 8 weeks of age were divided into groups of 4 (table 1, exp. A) or 8 (table 1, exp. B) based on body weight and acclimatized for at least 5 days before dosing. The animals were housed under standard environmental conditions ([…], relative humidity 50±20%, a light/dark cycle 12 h/12 h, pelleted food and water ad libitum), were offered enriched environment in an AAALAC accredited facility and were regularly and carefully monitored. All procedures were in accordance with the respective local regulations and according to the animal permissions granted by the Institutional Animal Care and Use Committee. Test compounds were formulated in isotonic sterile saline, sterile filtered (0.22 μm), and dosed at 40 mg/kg on days 1 and 8 (2.5 ml/kg) in the intrascapular region. Control group animals received saline as vehicle control. On day 15 animals were orally administered tap water (10 ml/kg), and urine was collected on ice for 6 hours in metabolic cages. […] On day 15 the rats were sacrificed by an intraperitoneal injection of pentobarbital and exsanguinated. Kidney cortex samples were collected and fixed by immersion in 10% neutral buffered formalin, embedded in paraffin, sectioned to 5 μm and stained with hematoxylin and eosin (H&). The H&E sections were then scanned at 20× magnification using an Aperio ScanScope AT™ (Leica Biosystems) scanner and pictures were then captured via ImageScope™ software from the scanned images. One or more of the following parameters were assessed kidney weight, serum creatinine, urine protein, KIM-1 protein in urine, KIM-1 mRNA, kidney degeneration/regeneration and relative tubulotoxicity grade.

[8] = PTEC-TERT1, 6 days, 10 ng/ml EGF in medium, 25 μM
[9] = PTEC-TERT1, 6 days, 10 ng/ml EGF in medium, 100 μM
[10] = PTEC-TERT1, 6 days, No EGF in Medium, 25 μM
[11] = PTEC-TERT1, 6 days, No EGF in Medium, 100 μM
[12] = PTEC-TERT1, Day 3, 3 μM (Table 2)
[13] = PTEC-TERT1, Day 3, 10 μM (Table 2)
[14] = PTEC-TERT1, Day 3, 11 μM (Table 3)
[15] = PTEC-TERT1, Day 3, 30 μM (Table 2)
[16] = PTEC-TERT1, Day 3, 33 μM (Table 3)
[17] = PTEC-TERT1, Day 3, 100 μM (Table 2)
[18] = PTEC-TERT1, Day 3, 100 μM (Table 3)
[19] = PTEC-TERT1, Day 6, 3 μM (Table 2)
[20] = PTEC-TERT1, Day 6, 10 μM (Table 2)
[21] = PTEC-TERT1, Day 6, 30 μM (Table 2)
[22] = PTEC-TERT1, Day 6, 100 μM (Table 2)
[23] = PTEC-TERT1, Day 7, 11 μM (Table 3)
[24] = PTEC-TERT1, Day 7, 33 μM (Table 3)
[25] = PTEC-TERT1, Day 7, 100 μM (Table 3)
[26] = PTEC-TERT1, Day 10, 11 μM (Table 3)
[27] = PTEC-TERT1, Day 10, 33 μM (Table 3)
[28] = PTEC-TERT1, Day 10, 100 μM (Table 3)

GCtgtgtgagcttGG (antisense GCTGTGTGAGCTTGG; sugars from the 5' end l2 d11 l2, backbone and methylation of C not given here) [Compound 4-1]
EGF (PTEC-TERT1 cells [1]; [8]): 731.7 pg/mL | EGF (PTEC-TERT1 cells [1]; [9]): 1957.8 pg/mL | EGF (PTEC-TERT1 cells [1]; PTEC-TERT1, 6 days, 10 μM oligonucleotide (Table 7)): 2622 % saline | Toxicity grade (PTEC-TERT1 cells [1]; PTEC-TERT1, 6 days, 10 μM): 100 | EGF (PTEC-TERT1 cells [1]; PTEC-TERT1, 6 days, 30 μM oligonucleotide (Table 7)): 7311 % saline | Toxicity grade (PTEC-TERT1 cells [1]; PTEC-TERT1, 6 days, 30 μM): 100 | EGF (PTEC-TERT1 cells [1]; [10]): 5.4 pg/mL | EGF (PTEC-TERT1 cells [1]; [11]): 5.3 pg/mL | EGF (PTEC-TERT1 cells [1]; [12]): 71 % saline | EGF (PTEC-TERT1 cells [1]; [13]): 116 % saline | EGF (PTEC-TERT1 cells [1]; [14]): 225 % saline | EGF (PTEC-TERT1 cells [1]; [15]): 302 % saline | EGF (PTEC-TERT1 cells [1]; [16]): 368 % saline | EGF (PTEC-TERT1 cells [1]; [17]): 1572 % saline | EGF (PTEC-TERT1 cells [1]; [18]): 484 % saline | EGF (PTEC-TERT1 cells [1]; [19]): 37 % saline | EGF (PTEC-TERT1 cells [1]; [20]): 222 % saline | EGF (PTEC-TERT1 cells [1]; [21]): 8398 % saline | EGF (PTEC-TERT1 cells [1]; [22]): 8899 % saline | EGF (PTEC-TERT1 cells [1]; [23]): 637 % saline | EGF (PTEC-TERT1 cells [1]; [24]): 983 % saline | EGF (PTEC-TERT1 cells [1]; [25]): 983 % saline | EGF (PTEC-TERT1 cells [1]; [26]): 1177 % saline | EGF (PTEC-TERT1 cells [1]; [27]): 1865 % saline | EGF (PTEC-TERT1 cells [1]; [28]): 1792 % saline | EGF (A549 cells [2]; 1 ng oligonucleotide): 132 % saline | EGF (A549 cells [2]; 10 ng oligonucleotide): 211 % saline | EGF ([3]; Day 3, 3 μM): 198 % saline | EGF ([3]; Day 3, 10 μM): 323 % saline | EGF ([3]; Day 3, 30 μM): 373 % saline | EGF ([3]; Day 3, 100 μM): 631 % saline | EGF ([3]; Day 6, 3 μM): 525 % saline | EGF ([3]; Day 6, 10 μM): 1171 % saline | EGF ([3]; Day 6, 30 μM): 1588 % saline | EGF ([3]; Day 6, 100 μM): 1403 % saline | EGF ([4]; day 3, 10 μM): 323 % saline | EGF ([4]; day 3, 100 μM): 985 % saline | morphological changes (PTEC-TERT1 cells [5]): adopted a flattened and stable appearance | ATP (A549 cells [6]; 1 ng oligonucleotide): 93 % saline | ATP (A549 cells [6]; 10 ng oligonucleotide): 51 % saline | In vivo nephrotoxicity / in vivo grade of toxicity [7]: high and High and Sever tox

TGCtacaaaacCCA (antisense TGCTACAAAACCCA; sugars from the 5' end l3 d8 l3, backbone and methylation of C not given here) [Compound 3-1]
EGF (PTEC-TERT1 cells [1]; [8]): 245.0 pg/mL | EGF (PTEC-TERT1 cells [1]; [9]): 341.8 pg/mL | EGF (PTEC-TERT1 cells [1]; [10]): 6.3 pg/mL | EGF (PTEC-TERT1 cells [1]; [11]): 12.2 pg/mL | EGF (PTEC-TERT1 cells [1]; [12]): 70 % saline | EGF (PTEC-TERT1 cells [1]; [13]): 75 % saline | EGF (PTEC-TERT1 cells [1]; [14]): 151 % saline | EGF (PTEC-TERT1 cells [1]; [15]): 70 % saline | EGF (PTEC-TERT1 cells [1]; [16]): 213 % saline | EGF (PTEC-TERT1 cells [1]; [17]): 128 % saline | EGF (PTEC-TERT1 cells [1]; [18]): 207 % saline | EGF (PTEC-TERT1 cells [1]; [19]): 124 % saline | EGF (PTEC-TERT1 cells [1]; [20]): 137 % saline | EGF (PTEC-TERT1 cells [1]; [21]): 231 % saline | EGF (PTEC-TERT1 cells [1]; [22]): 2413 % saline | EGF (PTEC-TERT1 cells [1]; [23]): 168 % saline | EGF (PTEC-TERT1 cells [1]; [24]): 287 % saline | EGF (PTEC-TERT1 cells [1]; [25]): 493 % saline | EGF (PTEC-TERT1 cells [1]; [26]): 41 % saline | EGF (PTEC-TERT1 cells [1]; [27]): 138 % saline | EGF (PTEC-TERT1 cells [1]; [28]): 227 % saline | EGF (A549 cells [2]; 1 ng oligonucleotide): 99 % saline | EGF (A549 cells [2]; 10 ng oligonucleotide): 199 % saline | EGF ([3]; Day 3, 3 μM): 114 % saline | EGF ([3]; Day 3, 10 μM): 139 % saline | EGF ([3]; Day 3, 30 μM): 134 % saline | EGF ([3]; Day 3, 100 μM): 269 % saline | EGF ([3]; Day 6, 3 μM): 152 % saline | EGF ([3]; Day 6, 10 μM): 286 % saline | EGF ([3]; Day 6, 30 μM): 653 % saline | EGF ([3]; Day 6, 100 μM): 915 % saline | EGF ([4]; day 3, 10 μM): 227 % saline | EGF ([4]; day 3, 100 μM): 411 % saline | morphological changes (PTEC-TERT1 cells [5]): formed irregular domes and vacuoles | ATP (A549 cells [6]; 1 ng oligonucleotide): 91 % saline | ATP (A549 cells [6]; 10 ng oligonucleotide): 44 % saline | In vivo nephrotoxicity / in vivo grade of toxicity [7]: Medium

From patent publication US11105794B2, “In vitro nephrotoxicity screening assay” (Hoffmann-La Roche Inc., priority 2016, dated 2021)
